The values that follow come from ChEMBL document CHEMBL1201862, “PubChem BioAssay data set” (2004).

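48-hour exposure; five concentrations; linearly interpolated endpoints. GI50 = concentration required for 50% inhibition of growth.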 Calls of active or inactive are those of the source. Rule as the data show it: active = GI50 up to about 1.1 µM and inactive = higher.

Among the test systems are SW-620; RXF 393; SK-MEL-5; SF-539; OVCAR-5; COLO 205; SNB-19; SK-MEL-28; HT-29; MCF7; OVCAR-3; SK-MEL-2; HL-60; HOP-62; PC-3; UACC-62; MOLT-4; LOX IMVI; KM12; UACC-257.
Assay in all cases: NCI tumour cell line growth inhibition, 48 h

For the molecule `Nc1nc(Cl)cc(NCC2(CO)CC(CCc3ccccc3)C2)n1` (stereo not given), the GI50 in the test on SW-620 was > 100 µM (inactive); in the test with RXF 393, 24.1 µM (inactive); with SK-MEL-5, 0.506 µM (active); with SF-539, > 100 µM (inactive); in the test on OVCAR-5, > 100 µM (inactive); with COLO 205, > 71.9 µM (inactive). Also, the GI50 in the test with SNB-19 was > 100 µM (inactive); with SK-MEL-28, > 100 µM (inactive); in the test on HT-29, > 46 µM (inactive); in the test with MCF7, 9.16 µM (inactive); in the test on OVCAR-3, 5.07 µM (inactive); with SK-MEL-2, 97.9 µM (inactive). Also, the GI50 was 3.44 µM (inactive) in the test on HL-60; > 37.6 µM (inactive) in the test with HOP-62; 73.8 µM (inactive) with PC-3; > 58.6 µM (inactive) in the test with UACC-62; 8.38 µM (inactive) in the test on MOLT-4; 3.26 µM (inactive) in the test on LOX IMVI. The GI50 is 83.9 µM (inactive) in the test with KM12 and 0.461 µM (active) in the test on UACC-257.

For the molecule `Cc1ccc(S(=O)(=O)C2=Cc3ccc(C(F)(F)F)cc3C2(O)c2cccc(C(F)(F)F)c2)cc1` (stereo not given), the GI50 was 1.85 µM (inactive) in the test with SW-620; 2.23 µM (inactive) in the test with RXF 393; 1.88 µM (inactive) in the test on SK-MEL-5; 1.95 µM (inactive) in the test with SF-539; 2.08 µM (inactive) in the test on OVCAR-5; 1.79 µM (inactive) in the test on COLO 205. The GI50 with SNB-19 was 5.83 µM (inactive); with SK-MEL-28, 1.9 µM (inactive); with HT-29, 2.19 µM (inactive); in the test with MCF7, 2.3 µM (inactive); in the test with OVCAR-3, 1.64 µM (inactive); in the test on SK-MEL-2, 1.82 µM (inactive). Moreover, the GI50 in the test with HL-60 is 1.65 µM (inactive); with HOP-62, 7.35 µM (inactive); in the test with PC-3 it was 2.79 µM (inactive); in the test on UACC-62 it was 2.39 µM (inactive); in the test on MOLT-4 it was 2.5 µM (inactive); in the test with LOX IMVI, 1.91 µM (inactive). The GI50 in the test on KM12 was 1.88 µM (inactive); with UACC-257, 1.85 µM (inactive).

Take `O=C1c2ccccc2C(=O)c2c(OCCOCCO)cccc21`: the GI50 was 57.5 µM (inactive) in the test with SW-620; 48.6 µM (inactive) in the test on RXF 393; 44.2 µM (inactive) with SK-MEL-5; 45.3 µM (inactive) in the test on SF-539; > 100 µM (inactive) with OVCAR-5; > 100 µM (inactive) in the test on COLO 205. Besides, the GI50 is > 100 µM (inactive) in the test on SNB-19; > 100 µM (inactive) with SK-MEL-28; 63.4 µM (inactive) in the test with HT-29; 74.6 µM (inactive) with MCF7; 28.4 µM (inactive) with OVCAR-3; > 100 µM (inactive) with SK-MEL-2. Moreover, the GI50 in the test on HL-60 is > 100 µM (inactive); with HOP-62 it was > 100 µM (inactive); with PC-3, 38.1 µM (inactive); in the test on UACC-62, 0.585 µM (active); in the test with MOLT-4, 58.3 µM (inactive); with LOX IMVI, 50.2 µM (inactive). Further, the figures for the GI50 with KM12 and in the test with UACC-257 were 46.6 µM (inactive) and > 100 µM (inactive), respectively.

`COCO[C@@H]1C[C@H]2C(O)Nc3ccccc3C(=O)N2C1` (stereo not given in full): the GI50 with SW-620, with RXF 393, in the test on SK-MEL-5, in the test on SF-539, in the test on OVCAR-5 and in the test with COLO 205 was > 100 µM (inactive) throughout. The GI50 in the test with SNB-19, in the test with SK-MEL-28, with HT-29, in the test with MCF7, in the test on OVCAR-3 and with SK-MEL-2 was > 100 µM (inactive) throughout. Also, the GI50 in the test on HL-60, in the test with HOP-62, in the test on PC-3, in the test with UACC-62, with MOLT-4 and in the test on LOX IMVI was > 100 µM (inactive) in each case. Further, the GI50 in the test with KM12 and in the test with UACC-257 was > 100 µM (inactive) throughout.

With `C=C(Nc1ccc([N+](=O)[O-])cc1[N+](=O)[O-])c1c/c(=N\NC(N)=S)c2ccccc2o1`, the GI50 in the test on SW-620 was 39.8 µM (inactive); in the test on RXF 393 it was 60.3 µM (inactive); in the test with SK-MEL-5, 37.7 µM (inactive); with SF-539, 16.6 µM (inactive); in the test on OVCAR-5, 56.9 µM (inactive); in the test on COLO 205, 33.5 µM (inactive). For the same molecule, the GI50 with SNB-19 was 53 µM (inactive); with SK-MEL-28 it was > 100 µM (inactive); in the test on HT-29 it was 87.7 µM (inactive); with MCF7, 40.6 µM (inactive); in the test with OVCAR-3 it was 22.7 µM (inactive); in the test on SK-MEL-2, > 100 µM (inactive). The GI50 in the test on HL-60 was 32.8 µM (inactive); in the test with HOP-62, 70 µM (inactive); with PC-3 it was 26.1 µM (inactive); in the test with UACC-62, > 100 µM (inactive); in the test on MOLT-4, 42.4 µM (inactive); with LOX IMVI, > 100 µM (inactive). Besides, the GI50 in the test on KM12 was 59.4 µM (inactive); in the test with UACC-257 it was 91.6 µM (inactive).

For `COC(=O)C1=COC2OC3CC1C2C(C)O3` (stereo not given), the GI50 with SW-620, in the test with RXF 393, in the test on SK-MEL-5, in the test on SF-539, in the test with OVCAR-5 and in the test on COLO 205 was > 100 µM (inactive) throughout. Besides, the GI50 in the test with SNB-19, in the test on SK-MEL-28, in the test with HT-29, in the test with MCF7, in the test with OVCAR-3 and with SK-MEL-2 was > 100 µM (inactive) each time. The GI50 in the test with HL-60, in the test with HOP-62, in the test on PC-3, in the test on UACC-62, with MOLT-4 and in the test on LOX IMVI was > 100 µM (inactive) each time. The GI50 with KM12 and in the test with UACC-257 was > 100 µM (inactive) in each case.
